Experimental data: patent publication US20230257396A1, “MACROCYCLES AND THEIR USE” (BLOSSOMHILL THERAPEUTICS, INC., priority 2020, published 2023)

Assays:
Assay in all cases: KINOMEscan kinase binding assay (Eurofins/DiscoveRx), % Ctrl
kinases [1] = molecular target: T1, kinases (Homo sapiens, UniProt P07949, V804M)
T1 construct: purchased Eurofins/DiscoveRx; host or cells: E. coli BL21-derived host (T7 phage display) for most kinases; HEK-293 for the rest
In short: (§1)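 Competition binding, 1 h RT: phage-tagged or HEK-293-expressed DNA-tagged kinase + immobilized ligand + compound. Eluate kinase by qPCR. % Ctrl = (test − positive ctrl)/(negative ctrl − positive ctrl) × 100; lower means stronger binding.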

kinases [2] = molecular target: T2, kinases (Homo sapiens, UniProt P10721, A829P)
T2 construct: purchased Eurofins/DiscoveRx; host or cells: E. coli BL21-derived host (T7 phage display) for most kinases; HEK-293 for the rest
In short: as §1

kinases [3] = molecular target: T3, kinases (Homo sapiens, UniProt P36888, D835V)
T3 construct: purchased Eurofins/DiscoveRx; host or cells: E. coli BL21-derived host (T7 phage display) for most kinases; HEK-293 for the rest
T3 sequence (P36888 27-993 D835V): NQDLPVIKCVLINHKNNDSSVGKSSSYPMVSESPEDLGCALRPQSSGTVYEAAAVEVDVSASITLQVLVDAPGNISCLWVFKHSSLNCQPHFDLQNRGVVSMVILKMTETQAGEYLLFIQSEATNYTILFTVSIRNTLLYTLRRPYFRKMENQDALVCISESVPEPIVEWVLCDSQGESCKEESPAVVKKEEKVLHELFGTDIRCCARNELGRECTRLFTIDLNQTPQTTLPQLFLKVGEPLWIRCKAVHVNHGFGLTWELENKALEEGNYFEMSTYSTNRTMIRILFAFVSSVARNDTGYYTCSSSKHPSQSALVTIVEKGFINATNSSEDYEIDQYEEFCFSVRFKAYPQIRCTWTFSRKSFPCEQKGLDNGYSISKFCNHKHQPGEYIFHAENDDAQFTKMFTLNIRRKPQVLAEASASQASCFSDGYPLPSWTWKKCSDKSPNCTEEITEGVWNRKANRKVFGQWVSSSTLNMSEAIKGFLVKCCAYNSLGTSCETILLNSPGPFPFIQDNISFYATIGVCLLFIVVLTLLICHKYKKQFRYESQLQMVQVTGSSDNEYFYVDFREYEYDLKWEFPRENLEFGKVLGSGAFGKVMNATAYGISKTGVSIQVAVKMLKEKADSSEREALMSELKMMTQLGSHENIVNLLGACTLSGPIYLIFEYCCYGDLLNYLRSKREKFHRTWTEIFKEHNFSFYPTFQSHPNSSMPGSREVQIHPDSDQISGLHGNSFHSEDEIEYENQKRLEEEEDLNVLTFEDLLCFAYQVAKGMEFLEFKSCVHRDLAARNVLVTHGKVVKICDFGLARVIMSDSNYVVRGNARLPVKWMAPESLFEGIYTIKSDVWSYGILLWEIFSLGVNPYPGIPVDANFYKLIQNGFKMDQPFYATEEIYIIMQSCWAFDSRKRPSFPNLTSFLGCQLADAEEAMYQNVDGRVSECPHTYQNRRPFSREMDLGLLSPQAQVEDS
In short: as §1

kinases [4] = molecular target: T4, kinases (Homo sapiens, UniProt P00519, M351T)
T4 construct: purchased Eurofins/DiscoveRx; host or cells: E. coli BL21-derived host (T7 phage display) for most kinases; HEK-293 for the rest
In short: as §1

kinases [5] = molecular target: T5, kinases (Homo sapiens, UniProt P00519, Q252H)
T5 construct: purchased Eurofins/DiscoveRx; host or cells: E. coli BL21-derived host (T7 phage display) for most kinases; HEK-293 for the rest
In short: as §1

kinases [6] = molecular target: T6, kinases (Homo sapiens, UniProt P00533)
T6 construct: purchased Eurofins/DiscoveRx; host or cells: E. coli BL21-derived host (T7 phage display) for most kinases; HEK-293 for the rest
In short: as §1

kinases [7] = molecular target: T7, kinases (Homo sapiens, UniProt P10721, V559D/V654A)
T7 construct: purchased Eurofins/DiscoveRx; host or cells: E. coli BL21-derived host (T7 phage display) for most kinases; HEK-293 for the rest
In short: as §1

kinases [8] = molecular target: T8, kinases (Homo sapiens, UniProt P00533, DEL746-750)
T8 construct: purchased Eurofins/DiscoveRx; host or cells: E. coli BL21-derived host (T7 phage display) for most kinases; HEK-293 for the rest
In short: as §1

kinases [9] = system: kinases
In short: as §1

kinases [10] = molecular target: T9, kinases (Homo sapiens, UniProt P10721, T670I/V559D)
T9 construct: purchased Eurofins/DiscoveRx; host or cells: E. coli BL21-derived host (T7 phage display) for most kinases; HEK-293 for the rest
In short: as §1

T9 sequence (P10721 26-976 V559D/T670I): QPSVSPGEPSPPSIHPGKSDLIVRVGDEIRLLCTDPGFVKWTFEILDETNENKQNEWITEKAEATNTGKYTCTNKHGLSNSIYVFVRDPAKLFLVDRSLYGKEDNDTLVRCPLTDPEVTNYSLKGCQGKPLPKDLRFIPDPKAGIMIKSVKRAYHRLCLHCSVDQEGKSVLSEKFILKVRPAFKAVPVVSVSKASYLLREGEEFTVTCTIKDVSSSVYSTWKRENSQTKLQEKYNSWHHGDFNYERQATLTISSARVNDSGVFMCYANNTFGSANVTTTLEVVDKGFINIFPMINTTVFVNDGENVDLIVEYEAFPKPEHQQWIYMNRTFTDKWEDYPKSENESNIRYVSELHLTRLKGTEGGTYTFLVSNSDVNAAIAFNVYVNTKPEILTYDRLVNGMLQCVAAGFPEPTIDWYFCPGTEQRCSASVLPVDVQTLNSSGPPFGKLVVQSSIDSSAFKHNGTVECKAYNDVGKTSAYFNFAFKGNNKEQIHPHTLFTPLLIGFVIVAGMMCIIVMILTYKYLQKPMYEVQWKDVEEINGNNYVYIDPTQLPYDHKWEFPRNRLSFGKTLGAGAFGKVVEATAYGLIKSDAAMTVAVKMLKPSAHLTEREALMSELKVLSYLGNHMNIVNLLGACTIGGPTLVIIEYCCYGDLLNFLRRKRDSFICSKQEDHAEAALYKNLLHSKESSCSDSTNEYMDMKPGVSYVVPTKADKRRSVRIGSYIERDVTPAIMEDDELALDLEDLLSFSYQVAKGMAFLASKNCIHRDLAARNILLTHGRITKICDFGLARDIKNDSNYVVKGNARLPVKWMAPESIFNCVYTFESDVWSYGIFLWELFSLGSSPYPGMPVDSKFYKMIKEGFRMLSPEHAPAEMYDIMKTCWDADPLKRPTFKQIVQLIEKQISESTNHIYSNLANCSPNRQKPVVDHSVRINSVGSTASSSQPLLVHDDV
T7 sequence (P10721 26-976 V559D/V654A): as the sequence (P10721 26-976 V559D/T670I) above, with V629A, I645T counted along it
T2 sequence (P10721 26-976 A829P): as the sequence (P10721 26-976 V559D/T670I) above, with D534V, I645T, A804P counted along it
T1 sequence (P07949 29-1114 V804M): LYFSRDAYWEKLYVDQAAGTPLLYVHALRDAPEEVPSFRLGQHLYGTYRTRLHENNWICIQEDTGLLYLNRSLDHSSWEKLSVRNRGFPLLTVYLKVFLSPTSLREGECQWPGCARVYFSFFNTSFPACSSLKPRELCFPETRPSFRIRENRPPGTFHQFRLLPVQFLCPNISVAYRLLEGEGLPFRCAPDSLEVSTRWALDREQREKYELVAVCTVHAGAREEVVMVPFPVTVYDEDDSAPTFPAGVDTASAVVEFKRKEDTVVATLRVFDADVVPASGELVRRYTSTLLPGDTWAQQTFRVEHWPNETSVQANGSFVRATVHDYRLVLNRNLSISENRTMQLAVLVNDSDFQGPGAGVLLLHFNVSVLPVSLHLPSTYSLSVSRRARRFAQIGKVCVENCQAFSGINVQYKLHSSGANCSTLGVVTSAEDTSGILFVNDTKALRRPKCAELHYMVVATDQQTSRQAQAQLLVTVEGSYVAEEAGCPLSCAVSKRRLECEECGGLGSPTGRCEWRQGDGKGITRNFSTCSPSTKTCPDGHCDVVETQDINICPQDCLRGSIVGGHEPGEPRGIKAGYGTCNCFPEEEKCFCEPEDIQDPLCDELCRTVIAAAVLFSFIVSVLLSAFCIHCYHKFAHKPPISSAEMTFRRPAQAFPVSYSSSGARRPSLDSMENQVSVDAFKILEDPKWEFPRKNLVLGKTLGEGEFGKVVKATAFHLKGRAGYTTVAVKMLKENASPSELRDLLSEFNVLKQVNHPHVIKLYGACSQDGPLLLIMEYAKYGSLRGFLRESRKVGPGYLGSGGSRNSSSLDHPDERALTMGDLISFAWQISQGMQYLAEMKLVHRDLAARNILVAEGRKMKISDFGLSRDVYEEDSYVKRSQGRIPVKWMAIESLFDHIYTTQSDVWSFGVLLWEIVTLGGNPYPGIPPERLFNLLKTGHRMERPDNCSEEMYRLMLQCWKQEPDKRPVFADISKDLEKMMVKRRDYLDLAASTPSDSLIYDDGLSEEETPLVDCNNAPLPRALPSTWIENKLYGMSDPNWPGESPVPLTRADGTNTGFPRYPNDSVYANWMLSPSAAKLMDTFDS

Cc1cc2c([nH]1)/C=C1\C(=O)Nc3ccc(cc31)-c1ccnn1CCOCCN(C)C2=O [Ex. 41, [19a(20)Z]-2,5-dimethyl-6,7,9,10-tetrahydro-1H-15,17-(ethanediylidene)pyrazolo[1,5-d]dipyrrolo[3,4-h:2′,3′-k][1,4,14]oxadiazacyclohexadecine-4,19(5H,18H)-dione]
% Ctrl, RET(V804M) (kinases [1]; 1 μM; RET(V804M)): 19 % Ctrl
% Ctrl, KIT(A829P) (kinases [2]; 1 μM; KIT(A829P)): 45 % Ctrl
% Ctrl, FLT3(D835V) (kinases [3]; 1 μM; FLT3(D835V)): 0.25 % Ctrl
% Ctrl, ABL1(M351T)-phosphorylated (kinases [4]; 1 μM; ABL1(M351T)-phosphorylated): 53 % Ctrl
% Ctrl, ABL1(Q252H)-nonphosphorylated (kinases [5]; 1 μM; ABL1(Q252H)-nonphosphorylated): 9 % Ctrl
% Ctrl, ABL1(Q252H)-phosphorylated (kinases [5]; 1 μM; ABL1(Q252H)-phosphorylated): 63 % Ctrl
% Ctrl, EGFR (kinases [6]; 1 μM; EGFR): 62 % Ctrl
% Ctrl, KIT(V559D, V654A) (kinases [7]; 1 μM; KIT(V559D, V654A)): 93 % Ctrl
% Ctrl, EGFR(E746-A750del) (kinases [8]; 1 μM; EGFR(E746-A750del)): 36 % Ctrl
% Ctrl, EGFR(L747-E749del, A750P) (kinases [9]; 1 μM; EGFR(L747-E749del, A750P)): 87 % Ctrl
% Ctrl, EGFR(L747-S752del, P753S) (kinases [9]; 1 μM; EGFR(L747-S752del, P753S)): 78 % Ctrl
% Ctrl, EGFR(L747-T751del, Sins) (kinases [9]; 1 μM; EGFR(L747-T751del, Sins)): 77 % Ctrl
% Ctrl, FLT3(ITD) (kinases [9]; 1 μM; FLT3(ITD)): 13 % Ctrl
% Ctrl, FLT3(ITD, D835V) (kinases [9]; 1 μM; FLT3(ITD, D835V)): 0.8 % Ctrl
% Ctrl, FLT3(ITD, F691L) (kinases [9]; 1 μM; FLT3(ITD, F691L)): 0.35 % Ctrl
% Ctrl, KIT(V559D, T670I) (kinases [10]; 1 μM; KIT(V559D, T670I)): 30 % Ctrl

Cc1cc2c([nH]1)/C=C1\C(=O)Nc3cnc(cc31)-c1cnn(C)c1CN(C)CCN(C)C2=O [Ex. 172, [3a(4)Z]-6,9,12,14-tetramethyl-9,10,11,12,13,14-hexahydro-17,1-(azenometheno)pyrazolo[4,3-m]dipyrrolo[3,2-f:3′,4′-i][1,4]diazacyclopentadecine-3,8(2H,5H)-dione]
% Ctrl, RET(V804M) (kinases [1]; 1 μM; target RET(V804M)): 0.8 % Ctrl
% Ctrl, KIT(A829P) (kinases [2]; 1 μM; target KIT(A829P)): 31 % Ctrl
% Ctrl, FLT3(D835V) (kinases [3]; 1 μM; target FLT3(D835V)): 0.5 % Ctrl
% Ctrl, ABL1(M351T)-phosphorylated (kinases [4]; 1 μM; target ABL1(M351T)-phosphorylated): 0.4 % Ctrl
% Ctrl, ABL1(Q252H)-nonphosphorylated (kinases [5]; 1 μM; target ABL1(Q252H)-nonphosphorylated): 0.3 % Ctrl
% Ctrl, ABL1(Q252H)-phosphorylated (kinases [5]; 1 μM; target ABL1(Q252H)-phosphorylated): 0.1 % Ctrl
% Ctrl, EGFR (kinases [6]; 1 μM; target EGFR): 36 % Ctrl
% Ctrl, KIT(V559D, V654A) (kinases [7]; 1 μM; target KIT(V559D, V654A)): 40 % Ctrl
% Ctrl, EGFR(E746-A750del) (kinases [8]; 1 μM; target EGFR(E746-A750del)): 43 % Ctrl
% Ctrl, EGFR(L747-E749del, A750P) (kinases [9]; 1 μM; target EGFR(L747-E749del, A750P)): 62 % Ctrl
% Ctrl, EGFR(L747-S752del, P753S) (kinases [9]; 1 μM; target EGFR(L747-S752del, P753S)): 52 % Ctrl
% Ctrl, EGFR(L747-T751del, Sins) (kinases [9]; 1 μM; target EGFR(L747-T751del, Sins)): 43 % Ctrl
% Ctrl, FLT3(ITD) (kinases [9]; 1 μM; target FLT3(ITD)): 1.1 % Ctrl
% Ctrl, FLT3(ITD, D835V) (kinases [9]; 1 μM; target FLT3(ITD, D835V)): 0.3 % Ctrl
% Ctrl, FLT3(ITD, F691L) (kinases [9]; 1 μM; target FLT3(ITD, F691L)): 0.3 % Ctrl
% Ctrl, KIT(V559D, T670I) (kinases [10]; 1 μM; target KIT(V559D, T670I)): 48 % Ctrl

Cc1cc2c([nH]1)/C=C1\C(=O)Nc3ccc(cc31)-c1c(noc1C)CNCCN(C)C2=O [Ex. 139, [3a(4)Z]-6,9,16-trimethyl-10,11,12,13-tetrahydro-2H-1,17-(ethanediylidene)[1,2]oxazolo[4,3-m]dipyrrolo[3,2-f:3′,4′-i][1,4]diazacyclopentadecine-3,8(5H,9H)-dione]
% Ctrl, RET(V804M) (kinases [1]; target RET(V804M); 1 μM): 23 % Ctrl
% Ctrl, KIT(A829P) (kinases [2]; target KIT(A829P); 1 μM): 74 % Ctrl
% Ctrl, FLT3(D835V) (kinases [3]; target FLT3(D835V); 1 μM): 0.9 % Ctrl
% Ctrl, ABL1(M351T)-phosphorylated (kinases [4]; target ABL1(M351T)-phosphorylated; 1 μM): 7.3 % Ctrl
% Ctrl, ABL1(Q252H)-nonphosphorylated (kinases [5]; target ABL1(Q252H)-nonphosphorylated; 1 μM): 7.8 % Ctrl
% Ctrl, ABL1(Q252H)-phosphorylated (kinases [5]; target ABL1(Q252H)-phosphorylated; 1 μM): 5.1 % Ctrl
% Ctrl, EGFR (kinases [6]; target EGFR; 1 μM): 94 % Ctrl
% Ctrl, KIT(V559D, V654A) (kinases [7]; target KIT(V559D, V654A); 1 μM): 75 % Ctrl
% Ctrl, EGFR(E746-A750del) (kinases [8]; target EGFR(E746-A750del); 1 μM): 72 % Ctrl
% Ctrl, EGFR(L747-E749del, A750P) (kinases [9]; target EGFR(L747-E749del, A750P); 1 μM): 71 % Ctrl
% Ctrl, EGFR(L747-S752del, P753S) (kinases [9]; target EGFR(L747-S752del, P753S); 1 μM): 77 % Ctrl
% Ctrl, EGFR(L747-T751del, Sins) (kinases [9]; target EGFR(L747-T751del, Sins); 1 μM): 81 % Ctrl
% Ctrl, FLT3(ITD) (kinases [9]; target FLT3(ITD); 1 μM): 8.1 % Ctrl
% Ctrl, FLT3(ITD, D835V) (kinases [9]; target FLT3(ITD, D835V); 1 μM): 1.2 % Ctrl
% Ctrl, FLT3(ITD, F691L) (kinases [9]; target FLT3(ITD, F691L); 1 μM): 0.9 % Ctrl
% Ctrl, KIT(V559D, T670I) (kinases [10]; target KIT(V559D, T670I); 1 μM): 69 % Ctrl
